Measurements published in ChEMBL document CHEMBL1125070, “Benzotriazinones as "virtual ring" mimics of o-methoxybenzamides: novel and potent 5-HT3 receptor antagonists” (J Med Chem, 1990).

target: Serotonin 3 (5-HT3) receptor (Rattus norvegicus) (UniProt P35563+Q9JJ16); assay: Antagonistic activity against 5-hydroxytryptamine 3 receptor as inhibition of 5-HT-induced bradycardia (von Bezold-jarisch reflex) in anesthetized rat; format: functional

| Compound | ID50 [mg/kg] |
| --- | --- |
| CN1[C@@H]2CC[C@H]1C[C@@H](OC(=O)c1cc(Cl)cc(Cl)c1)C2 | 0.035 |
| CN1C2CCC1CC(n1nnc3cc([N+](=O)[O-])c(Cl)cc3c1=O)C2 (stereo unspecified) | 0.013 |
| COc1cc(N)c(Cl)cc1C(=O)NC1CC2CCC(C1)N2C (stereo unspecified) | 0.0008 |
| CN1C2CCC1CC(n1nnc3ccc(Cl)cc3c1=O)C2 (stereo unspecified) | 0.012 |
| CN1[C@@H]2CC[C@H]1C[C@@H](OC(=O)c1c[nH]c3ccccc13)C2 | 0.0014 |
| COc1ccc(Cl)cc1C(=O)NC1CC2CCC(C1)N2C (stereo unspecified) | 0.015 |
| COc1cc(N)ccc1C(=O)NC1CC2CCC(C1)N2C (stereo unspecified) | 0.016 |
| Nc1cc2nnn(C3CN4CCC3CC4)c(=O)c2cc1Cl (stereo unspecified) | 0.0036 |
| CN1C2CCC1CC(NC(=O)c1ccc(N)c(Cl)c1)C2 (stereo unspecified) | 0.036 |
| CN1C2CCC1CC(n1nnc3ccccc3c1=O)C2 (stereo unspecified) | > 0.05 |
| CN1C2CCC1CC(n1cnc3cc(N)c(Cl)cc3c1=O)C2 (stereo unspecified) | 0.33 |
